Where no end group is shown, it is not given here.
Tested on: T84 monolayers
From the text: T84 cells are a human colonic epithelial cell line that differentiates and creates tight junctions. T84 cells are a model for colonic inflammation.

GGVLVQPG (SEQ ID NO:1) [Larazotide]
concentration dependence of the effect of protecting T84 monolayers from disruption by Streptococcus KS47 (FIG. 3): concentration dependent
protection of T84 monolayers from disruption by Shigella (T84 human colonic epithelial cell line, FIG. 1): does not protect
